The source of these data is US20240182445A1 (ONO PHARMACEUTICAL CO., LTD., priority 2019, published 2024).

The subject of data set [1] is MK-801-induced deficits in the Novel Object Recognition Task. Nature of the data set: MK-801-induced novel object recognition test. To be noted: rats; 0.1 mg/kg, 0.3 mg/kg and 1 mg/kg; MK-801 0.2 mg/kg. Type of data set: in vivo, Sprague-Dawley rats. Here is the method: The term “MK-801-induced novel object recognition test” herein refers to the experiment to evaluate in vivo efficacy in the schizophrenic cognitive impairment animal model. The detail method is described below. MK-801 is also known as dizocilpine.
MK-801-Induced Novel Object Recognition Test:
Testing was performed using 6-week-old male Sprague Dawley rats. On the testing day, rats were habituated at the empty box for 10 minutes individually. The disclosed compound was administered orally 1 h prior, followed by administration of MK-801 (0.2 mg/kg, s.c.) 30 min prior to the acquisition trial for 10 min. The retention trial for 10 min was performed with the intertrial interval for 80 min. The rat was allowed to explore the same objects in the acquisition trial. In the retention trial, one of the objects used in the acquisition trial was replaced with a novel one. The exploration time of licking, sniffing or touching was measured in the retention trial. Efficacy of each compound at the dose of 0.3, 1, 3 or 10 mg/kg p.o. (n=12-15) was determined by the recognition index (exploration time to the novel object/total exploration time). The scores of MK-801/vehicle and MK-801/compound-treated groups were statistically analyzed by Dunnett's test.
MK-801 induced disruptions of Novel Object Recognition
Drugs: Test compounds were formulated in 10% Tween 80/90% sterile water vehicle. […]

Data set [2] can be described thus: Rat in vivo pharmacokinetics and brain distribution (i.v. cassette). The settings on record: iv, rat i.v. cassette injection. Here is the method:
Compound 12 was tested in several in vivo assays to investigate pharmacokinetics and brain distribution. Abbreviations which have been used in the descriptions of following tables are; CLp is plasma clearance; Vss is volume of distribution at steady state; Elim. t1/2 is half-life for elimination; Kp is tissue distribution partition coefficient; Kp,uu is unbound tissue distribution partition coefficient.

Data set [3] in a line: Mouse brain homogenate binding (BHB). In kind it is in vitro ADME. Here is the method:
(§1) These assays were performed according to known methods as generally described in the following references: Conde-Ceide et al. ACS Med. Chem. Lett. 2015, 6, 716-720; Morris et al. J. Med. Chem. 2014, 57, 10192-10197; and Bubser et al. ACS Chem. Neurosci. 2014, 5, 920-942. Abbreviations which have been used in the descriptions of the following tables are; PPB is plasma protein binding; BHB is brain homogenate binding; and CLint is intrinsic clearance in hepatic microsomes.

Data set [4] is described as follows: Rat hepatic microsomal intrinsic clearance. In kind it is in vitro ADME. The settings on record: rat hepatic microsomes. Here is the method:
as §1

Molecules are shown by their SMILES. Entries after “also recorded” stand apart in the source; their conditions may differ.

Broadly, the CLint scaled is a measure of how fast metabolising enzymes remove a compound, apart from limits set by blood flow. High values mean rapid turnover, low ones slow turnover. For the compound `CC(=O)N[C@H]1CC[C@@H](n2ncc(Cl)c2C(=O)Nc2ncc(C#Cc3ccccc3)cc2C)CC1` [Compound 12, 1-(cis-4-acetamidocyclohexyl)-4-chloro-N-(3-methyl-5-(phenylethynyl)pyridin-2-yl)-1H-pyrazole-5-carboxamide], in data set [1], the “reversal of MK-801-induced deficits in the Novel Object Recognition Task” value is “dose-dependently reversed; also recorded: caused reversal”. Further, the Kp uu in data set [2] (brain, unbound tissue distribution partition coefficient, read-out: Rat brain: plasma Kp, uu) came to 0.19. The clearance in data set [2] (plasma clearance, read-out: Rat CLp) amounted to 28 mL/min/kg. Also, the half-life in data set [2] (plasma, half-life for elimination, read-out: Rat Elim. t1/2 (converted)) is 2 h. The Vd in data set [2] (plasma, volume of distribution at steady state, read-out: Rat Vss) was determined as 4.7 L/kg. Besides, the “Mouse BHB (% bound)” value in data set [3] came to 99.7 % bound. For the same compound, the CLint scaled in data set [4] is 54 mL/min/kg.
